Reference: patent publication US8802240B2, “Uses of formulations of thyroid hormone analogs and nanoparticulate forms thereof to increase chemosensitivity and radiosensitivity in tumor or cancer cells” (Nanopharmaceuticals LLC, priority 2011, dated 2014)

Assays:
[1] = system: SKN-SH/R cells; experiment: Senescence and apoptosis in drug resistant cells; format: cell-based; conditions: 24 h
Description: In FIG. 16A, SKN-SH/R cells were subjected to treatment doxorubicin (Dox) alone, Tetrac alone, or the combination of both for 24 h. Expression of p21/WAF1, cleaved caspase-3 (Cl-Casp-3) and beta action were measured by Western blot using specific antibodies. In FIG. 16B, the cells were seeded in 24 well plates and treated as mentioned above and expression of the senescence associated beta galactosidase (SA-β-Gal.) was assayed as described in the methods section. In FIG. 16C, the cells were seeded on cover slips and treated with the drugs as above for 24 h, after which they were fixed and stained with Hoechst and the percentage of positive cells graphed. The data represent average of 3 determinations±SE.

[2] = system: GL261 tumor cells; experiment: GL261 44° C. hyperthermia; format: cell-based, murine; conditions: 44° C. plus Tetrac is the equivalent of 45° C. without Tetrac
Description: Additionally, Tetrac sensitizes GL261 cells in hyperthermic conditions. Graded heat treatment of GL261 tumor cells with 44° C. was given, without and with Tetrac. Tetrac increased cell killing as compared to control cells alone, by the equivalent of about 1° C. (i.e., 44° C. plus Tetrac is the equivalent of 45° C. without Tetrac). (See FIG. 63).

[3] = system: doxorubicin-resistant MCF7/R cells; experiment: Doxorubicin-resistant tumors in nude mice; format: in vivo
Description: Mice were injected with doxorubicin-resistant MCF7/R cells (10^6) and after 10 days, they were assigned into groups of seven mice each and challenged with doxorubicin (2 mg/kg) or Tetrac (30 mg/kg) either alone or in combination. Tumor volume was measured every 3 days for up to three weeks.

O=C(O)Cc1cc(I)c(Oc2cc(I)c(O)c(I)c2)c(I)c1 [Tetrac, tetraiodothyroacetic acid]
doxorubicin-induced proliferation arrest (p21/WAF1), SA-β-Gal and cell death (in words) [1]: dramatically enhanced | increase in cell killing, temperature equivalent [2]: about 1 °C | toxic effect (in words) ([3]; Tetrac 30 mg/kg): without any noticeable toxic effect | doxorubicin-sensitivity in vivo (in words) ([3]; Tetrac 30 mg/kg with doxorubicin 2 mg/kg): not restored | growth of doxorubicin-resistant tumors (in words) ([3]; Tetrac 30 mg/kg, up to three weeks): effective in suppressing the growth of drug resistant tumors
